Results on 50 compounds are retold here after ChEMBL document CHEMBL4219156, “Synthesis, evaluation and CoMFA/CoMSIA study of nitrofuranyl methyl N-heterocycles as novel antitubercular agents” (2018).

Converted amounts (≈) assume the structure as drawn.

In the assay the test system is Mycobacterium tuberculosis. Nature of the assay: Antitubercular activity against Mycobacterium tuberculosis H37Rv ATCC 27294 after 7 days by MABA. Details: -logMIC: unit not given here. In kind it is functional. The settings on record: for MIC: Mycobacterium tuberculosis, H37Rv ATCC 27294, 168 h.

On to `CCON=C1CCN(Cc2ccc([N+](=O)[O-])o2)CC1`, for which the “-logMIC” value is on record as 3.029 and the minimal inhibitory concentration (MIC) was 0.935 µg/mL (≈ 3.5 µM).
For `CC(C)CC(=O)N1CCC2(CCN(Cc3ccc([N+](=O)[O-])o3)CC2)CC1`, the minimum inhibitory concentration (MIC) stood at 2.41 µg/mL (≈ 6.63 µM).
Turning to `CN(C)C(=O)CN1CCN(Cc2ccc([N+](=O)[O-])o2)CC1`, the “-logMIC” value worked out at 1.516 and the minimum inhibitory concentration (MIC) worked out at 30.5 µg/mL (≈ 103 µM).
Regarding `O=[N+]([O-])c1ccc(CN2CCc3ccc(Cl)cc3C2)o1`, the “-logMIC” value is 3.962 and the MIC came to 0.109 µg/mL (≈ 0.372 µM).
`O=[N+]([O-])c1ccc(CN2CCC(=NOCc3ccccc3)CC2)o1`: the “-logMIC” value turned out to be 3.608 and the minimal inhibitory concentration (MIC) is 0.247 µg/mL (≈ 0.75 µM).
As for `O=[N+]([O-])c1ccc(CN2CCNCC2)o1`, the “-logMIC” value amounted to 3.616 and the minimum inhibitory concentration (MIC) was 0.242 µg/mL (≈ 1.15 µM).
As for `CC(C)CC(=O)N1CCN(Cc2ccc([N+](=O)[O-])o2)CC1`, the “-logMIC” value is given as 2.51 and the minimum inhibitory concentration (MIC) came out at 0.498 µg/mL (≈ 1.69 µM).
In the same order, the values of `O=[N+]([O-])c1ccc(CN2CCC(c3ccc(OC(F)(F)F)cc3)CC2)o1` are 3.303 and 0.497 µg/mL (≈ 1.34 µM).
The matching figures for `N#Cc1ccc2c(c1)CN(Cc1ccc([N+](=O)[O-])o1)C2`: 3.766 and 0.171 µg/mL (≈ 0.635 µM).
Consider `O=[N+]([O-])c1ccc(CN2CCC3(CC2)CCN(S(=O)(=O)c2ccc(Cl)cc2)CC3)o1`, for which the “-logMIC” value is on record as 4.51 and the MIC came out at 0.031 µg/mL (≈ 0.0683 µM).
The compound `CO[C@H]1/C=C/O[C@@]2(C)Oc3c(C)c(O)c4c(O)c(c(/C=N/N5CCN(C)CC5)c(O)c4c3C2=O)NC(=O)/C(C)=C\C=C\[C@H](C)[C@H](O)[C@@H](C)[C@@H](O)[C@@H](C)[C@H](OC(C)=O)[C@@H]1C` [RIFAMPIN] came in with an MIC of 0.127 µg/mL (≈ 0.154 µM).
In the case of `CCOC(=O)CN1CCN(Cc2ccc([N+](=O)[O-])o2)CC1`, the “-logMIC” value is 2.414 and the MIC stood at 3.85 µg/mL (≈ 13 µM).
For the compound `COc1ccc2c(c1)CN(Cc1ccc([N+](=O)[O-])o1)CC2`, the “-logMIC” value was found to be 3.918 and the MIC is 0.121 µg/mL (≈ 0.42 µM).
As for `CC(=O)N1CCC2(CCN(Cc3ccc([N+](=O)[O-])o3)CC2)CC1`, the minimal inhibitory concentration (MIC) was 32 µg/mL (≈ 99.6 µM).
With `O=[N+]([O-])c1ccc(CON=C2CCN(Cc3ccc([N+](=O)[O-])o3)CC2)cc1`, the “-logMIC” value is recorded as 3.742 and the MIC came to 0.181 µg/mL (≈ 0.484 µM).
The compound `O=C(C1CCCCC1)N1CCC2(CCN(Cc3ccc([N+](=O)[O-])o3)CC2)CC1` gave an MIC of 3.87 µg/mL (≈ 9.93 µM).
Take `CC(=O)N1CCN(Cc2ccc([N+](=O)[O-])o2)CC1`: the “-logMIC” value turned out to be 1.922 and the minimal inhibitory concentration (MIC) amounted to 12 µg/mL (≈ 47.3 µM).
Consider `O=[N+]([O-])c1ccc(CN2CCC(c3ccc(F)cc3)CC2)o1`, for which the “-logMIC” value was 3.337 and 0.46 µg/mL (≈ 1.51 µM) was the least that counted as inhibitory (MIC).
Regarding `CCC(C)C(=O)N1CCN(Cc2ccc([N+](=O)[O-])o2)CC1` (stereo not drawn), the “-logMIC” value was 3.303 and the lowest concentration to inhibit growth (MIC) was 3.09 µg/mL (≈ 10.5 µM).
Consider `COc1ccc(C2CCN(Cc3ccc([N+](=O)[O-])o3)CC2)cc1`, for which the “-logMIC” value is recorded as 3.4 and the MIC was 0.398 µg/mL (≈ 1.26 µM).
`O=[N+]([O-])c1ccc(CN2CCC(c3ccc(Br)cc3)CC2)o1`: the “-logMIC” value was found to be 3.31 and the MIC turned out to be 0.49 µg/mL (≈ 1.34 µM).
For the compound `O=[N+]([O-])c1ccc(CN2Cc3ccc(F)cc3C2)o1`, the “-logMIC” value was determined as 3.31 and the MIC was 0.49 µg/mL (≈ 1.87 µM).
With `COc1ccc(CON=C2CCN(Cc3ccc([N+](=O)[O-])o3)CC2)cc1`, the “-logMIC” value is listed as 4.293 and it took 0.051 µg/mL (≈ 0.142 µM) to inhibit growth (MIC).
For `O=C(c1ccccc1)N1CCN(Cc2ccc([N+](=O)[O-])o2)CC1`, the “-logMIC” value turned out to be 2.733 and inhibition of growth (MIC) required 1.85 µg/mL (≈ 5.86 µM).
On to `CC(C)(C)c1cccc(N2CCC3(CCN(Cc4ccc([N+](=O)[O-])o4)CC3)CC2)c1`, for which the “-logMIC” value is recorded as >4.796 and the minimal inhibitory concentration (MIC) is < 0.016 µg/mL.
In the case of `O=C(CN1CCN(Cc2ccc([N+](=O)[O-])o2)CC1)Oc1ccccc1`, the “-logMIC” value was 3.325 and the minimum inhibitory concentration (MIC) is 0.473 µg/mL (≈ 1.37 µM).
Compound `COc1ccc(S(=O)(=O)N2CC3CN(Cc4ccc([N+](=O)[O-])o4)CC3C2)cc1` (stereo not drawn) gave a minimum inhibitory concentration (MIC) of 0.405 µg/mL (≈ 0.994 µM).
As to `COc1ccc(C(=O)N2CCN(Cc3ccc([N+](=O)[O-])o3)CC2)cc1`, the “-logMIC” value was 3.408 and it took 0.391 µg/mL (≈ 1.13 µM) to inhibit growth (MIC).
In the case of `CC(=O)CCN1CC2CN(Cc3ccc([N+](=O)[O-])o3)CC2C1` (stereo not drawn), the MIC was 32 µg/mL (≈ 104 µM).
In the case of `CON=C1CCN(Cc2ccc([N+](=O)[O-])o2)CC1`, the “-logMIC” value is reported as 2.701 and the minimum inhibitory concentration (MIC) was 1.99 µg/mL (≈ 7.85 µM).
Take `CC(C)(C)C(=O)N1CC2CN(Cc3ccc([N+](=O)[O-])o3)CC2C1` (stereo not drawn): inhibition of growth (MIC) required 1.55 µg/mL (≈ 4.81 µM).
As for `O=C(CN1CCN(Cc2ccc([N+](=O)[O-])o2)CC1)Nc1ccccc1`, the “-logMIC” value turned out to be 1.99 and the MIC turned out to be 10.2 µg/mL (≈ 29.7 µM).
Take `O=C(C1CCCCC1)N1CC2CN(Cc3ccc([N+](=O)[O-])o3)CC2C1` (stereo not drawn): the minimum inhibitory concentration (MIC) came out at 7.68 µg/mL (≈ 22.1 µM).
For `O=[N+]([O-])c1ccc(CN2CC3CN(S(=O)(=O)c4ccc(C(F)(F)F)cc4)CC3C2)o1` (stereo not drawn), inhibition of growth (MIC) required 0.123 µg/mL (≈ 0.276 µM).
In the case of `CC(=O)CN1CCN(Cc2ccc([N+](=O)[O-])o2)CC1`, the “-logMIC” value amounted to 2.117 and it took 7.63 µg/mL (≈ 28.6 µM) to inhibit growth (MIC).
In the same order, the values of `CC(C)(C)OC(=O)CN1CCN(Cc2ccc([N+](=O)[O-])o2)CC1` are 2.514 and 3.06 µg/mL (≈ 9.4 µM).
In turn, `NNC(=O)c1ccncc1` [ISONIAZID] showed a minimum inhibitory concentration (MIC) of 0.038 µg/mL (≈ 0.277 µM).
Consider `O=[N+]([O-])c1ccc(CN2Cc3ccccc3C2)o1`, for which the “-logMIC” value is recorded as 2.749 and the MIC came to 1.78 µg/mL (≈ 7.3 µM).
`O=[N+]([O-])c1ccc(S(=O)(=O)N2CC3CN(Cc4ccc([N+](=O)[O-])o4)CC3C2)cc1` (stereo not drawn) registered an MIC of 0.235 µg/mL (≈ 0.556 µM).
Take `CC(C)(C)C(=O)N1CCN(Cc2ccc([N+](=O)[O-])o2)CC1`: the “-logMIC” value stood at 3.023 and the MIC stood at 0.948 µg/mL (≈ 3.21 µM).
As for `CC(C)(C)c1ccc(N2CCC3(CCN(Cc4ccc([N+](=O)[O-])o4)CC3)CC2)cc1`, the “-logMIC” value is reported as >4.796 and the MIC is < 0.016 µg/mL.
On to `CC(C)(C)c1ccc(S(=O)(=O)N2CC3CN(Cc4ccc([N+](=O)[O-])o4)CC3C2)cc1` (stereo not drawn), for which the minimum inhibitory concentration (MIC) came to 0.126 µg/mL (≈ 0.291 µM).
As to `O=C(c1ccc(F)cc1)N1CCN(Cc2ccc([N+](=O)[O-])o2)CC1`, the “-logMIC” value is reported as 2.779 and inhibition of growth (MIC) required 1.66 µg/mL (≈ 4.99 µM).
For the compound `O=[N+]([O-])c1ccc(CN2CCc3ccc(Br)cc3C2)o1`, the “-logMIC” value came to 4.206 and the MIC turned out to be 0.062 µg/mL (≈ 0.184 µM).
The matching figures for `O=[N+]([O-])c1ccc(CN2CCC(c3ccc(C(F)(F)F)cc3)CC2)o1`: 2.609 and 2.46 µg/mL (≈ 6.94 µM).
Regarding `CNc1ccc(C(=O)N2CCN(Cc3ccc([N+](=O)[O-])o3)CC2)cc1`, the “-logMIC” value stood at 3.315 and the minimal inhibitory concentration (MIC) was determined as 0.484 µg/mL (≈ 1.41 µM).
Turning to `N#Cc1ccc2c(c1)CN(Cc1ccc([N+](=O)[O-])o1)CC2`, the “-logMIC” value was 3.988 and it took 0.103 µg/mL (≈ 0.364 µM) to inhibit growth (MIC).
As to `CC(C)(C)c1ccc(N2CCN(Cc3ccc([N+](=O)[O-])o3)CC2)cc1`, the “-logMIC” value was 4.796 and the lowest concentration to inhibit growth (MIC) was 0.016 µg/mL (≈ 0.0466 µM).
As to `O=C(C1CCCCC1)N1CCN(Cc2ccc([N+](=O)[O-])o2)CC1`, the “-logMIC” value worked out at 3.621 and it took 0.239 µg/mL (≈ 0.744 µM) to inhibit growth (MIC).
In the same order, the values of `O=[N+]([O-])c1ccc(CN2CCC(=NOCc3ccc(C(F)(F)F)cc3)CC2)o1` are 3.673 and 0.212 µg/mL (≈ 0.534 µM).
